Experimental data as given in patent US20230338349A1, “LOW DOSE REGIMEN AND FORMULATION OF A 5-METHYL-1,2,4-OXADIAZOL-3-YL COMPOUND” (Eli Lilly and Company, priority 2020, published 2023).

Assay: Plasma concentration of compound of Formula I in the PET occupancy study
Type: in vivo
Settings: human, healthy subjects; for concentration at 0.5 h: approx. 0.5 h; for concentration at 1 h: approx. 1 h; for concentration at 2 h: approx. 2 h; for concentration at 3 h: approx. 3 h; for concentration at 4 h: approx. 4 h; for concentration at 5 h: approx. 5 h; for concentration at 6 h: approx. 6 h; for concentration at 8 h: approx. 8 h; for concentration at 12 h: approx. 12 h; for concentration at 24 h: approx. 24 h
Description: Healthy subjects are assigned to 1 of 4 cohorts with 4 subjects in each cohort completing the study. All subjects undergo one baseline PET scan and two post-dose PET scans. A baseline PET scan is performed from up to approximately 14 days before dosing of the compound of Formula I. Overall, each subject receives a single dose of the compound of Formula I and 3 administrations of the [^18F]LSN3316612 PET tracer. Dosing of the compound of Formula I occurs after completion of the baseline PET scan. Scans are conducted at approximately 2 and 24 hours post-dose for the 0.25 mg and 5 mg doses of the compound of Formula I, and at approximately 2 and 24 hours or 30 and 54 hours post-dose for the 1 mg dose of the compound of Formula I. Dynamic PET data of the brain are acquired over 120 min immediately following tracer injection. EO is summarized by the compound of Formula I dose and approximate scanning time.
The compound of Formula I is administered orally in capsule formulation for doses≥3 mg. For doses lower than 3 mg, the compound of Formula I is weighed into a suitable container and dissolved in an appropriate volume of degassed Sprite® or diluent.
Arterial blood samples are collected from all subjects during each PET scan to measure radioactivity to provide input for the PET tracer kinetic analysis. Venous blood samples are collected following dosing of compound of Formula I to measure plasma concentrations of compound of Formula I using a validated liquid chromatography with tandem mass spectrometry assay.

CC(=O)Nc1nc(F)c(CN2CC[C@H](OCc3noc(C)n3)C[C@@H]2C)s1 [compound of Formula I, N-[4-fluoro-5-[[(2S,4S)-2-methyl-4-[(5-methyl-1,2,4-oxadiazol-3-yl)methoxy]-1-piperidyl]methyl]thiazol-2-yl]acetamide]
concentration at 0.5 h (single oral dose 0.25 mg): 0.934 ng/mL | concentration at 1 h (single oral dose 0.25 mg): 0.595 ng/mL | concentration at 2 h (single oral dose 0.25 mg): 0.373 ng/mL | concentration at 3 h (single oral dose 0.25 mg): 0.391 ng/mL | concentration at 4 h (single oral dose 0.25 mg): 0.367 ng/mL | concentration at 5 h (single oral dose 0.25 mg): 0.39 ng/mL | concentration at 6 h (single oral dose 0.25 mg): 0.357 ng/mL | concentration at 8 h (single oral dose 0.25 mg): 0.294 ng/mL | concentration at 12 h (single oral dose 0.25 mg): 0.213 ng/mL | concentration at 24 h (single oral dose 0.25 mg): 0.107 ng/mL | concentration at 0.5 h (single oral dose 1 mg): 6.29 ng/mL | concentration at 1 h (single oral dose 1 mg): 6.24 ng/mL | concentration at 2 h (single oral dose 1 mg): 5.75 ng/mL | concentration at 3 h (single oral dose 1 mg): 4.97 ng/mL | concentration at 4 h (single oral dose 1 mg): 4.28 ng/mL | concentration at 5 h (single oral dose 1 mg): 3.87 ng/mL | concentration at 6 h (single oral dose 1 mg): 3.08 ng/mL | concentration at 8 h (single oral dose 1 mg): 2.45 ng/mL | concentration at 12 h (single oral dose 1 mg): 1.42 ng/mL | concentration at 24 h (single oral dose 1 mg): 0.412 ng/mL | concentration at 30 h (single oral dose 1 mg, approx. 30 h): 0.222 ng/mL | concentration at 54 h (single oral dose 1 mg, approx. 54 h): 0.0735 ng/mL | concentration at 0.5 h (single oral dose 5 mg): 32.4 ng/mL | concentration at 1 h (single oral dose 5 mg): 30.7 ng/mL | concentration at 2 h (single oral dose 5 mg): 36 ng/mL | concentration at 3 h (single oral dose 5 mg): 31.9 ng/mL | concentration at 4 h (single oral dose 5 mg): 31.5 ng/mL | concentration at 5 h (single oral dose 5 mg): 30.6 ng/mL | concentration at 6 h (single oral dose 5 mg): 25.3 ng/mL | concentration at 8 h (single oral dose 5 mg): 17.8 ng/mL | concentration at 12 h (single oral dose 5 mg): 12.5 ng/mL | concentration at 24 h (single oral dose 5 mg): 3.07 ng/mL
